# Patent US11390609B2, “Rho-associated protein kinase inhibitor, pharmaceutical composition comprising same, and preparation method and use thereof” (BEIJING TIDE PHARMACEUTICAL CO., LTD., priority 2017, dated 2022)
# How the values were obtained:
# [1] = molecular target: ROCK1 (Homo sapiens (Human), UniProt Q13464); assay: ROCK1 kinase IC50 assay (biological test method similar to the ROCK2 assay); type: biochemical
# Summary of the method: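 Compound dilution series (9 concentrations, top solution 10000 nM, DMSO-containing buffer) incubated 2 h at room temperature with kinase, STK-S2 substrate and ATP (5× working solutions of 1.5 µM each). Phosphorylation detected by HTRF (665/615 nm emission ratio) after 1 h; inhibition relative to full-reaction and kinase-free wells, fitted for IC50.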
# [2] = molecular target: ROCK2 (Homo sapiens, UniProt O75116); assay: ROCK2 kinase IC50 assay (CISBIO HTRF KinEASE-STK S2 kit); type: biochemical; settings: incubated at room temperature for 2 hours
# Summary of the method: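 HTRF KinEASE-STK S2 format with recombinant ROCK2 (1.4 ng per well), STK-S2 substrate and ATP from 5× working solutions of 1.5 μM each, run 2 h at room temperature. Nine-point dilutions from 10000 nM top concentration; 665/615 nm emission ratio normalised to no-compound and no-kinase controls, curve-fitted for IC50.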
# Chain of ROCK1 (Q13464 whole entry, species assumed): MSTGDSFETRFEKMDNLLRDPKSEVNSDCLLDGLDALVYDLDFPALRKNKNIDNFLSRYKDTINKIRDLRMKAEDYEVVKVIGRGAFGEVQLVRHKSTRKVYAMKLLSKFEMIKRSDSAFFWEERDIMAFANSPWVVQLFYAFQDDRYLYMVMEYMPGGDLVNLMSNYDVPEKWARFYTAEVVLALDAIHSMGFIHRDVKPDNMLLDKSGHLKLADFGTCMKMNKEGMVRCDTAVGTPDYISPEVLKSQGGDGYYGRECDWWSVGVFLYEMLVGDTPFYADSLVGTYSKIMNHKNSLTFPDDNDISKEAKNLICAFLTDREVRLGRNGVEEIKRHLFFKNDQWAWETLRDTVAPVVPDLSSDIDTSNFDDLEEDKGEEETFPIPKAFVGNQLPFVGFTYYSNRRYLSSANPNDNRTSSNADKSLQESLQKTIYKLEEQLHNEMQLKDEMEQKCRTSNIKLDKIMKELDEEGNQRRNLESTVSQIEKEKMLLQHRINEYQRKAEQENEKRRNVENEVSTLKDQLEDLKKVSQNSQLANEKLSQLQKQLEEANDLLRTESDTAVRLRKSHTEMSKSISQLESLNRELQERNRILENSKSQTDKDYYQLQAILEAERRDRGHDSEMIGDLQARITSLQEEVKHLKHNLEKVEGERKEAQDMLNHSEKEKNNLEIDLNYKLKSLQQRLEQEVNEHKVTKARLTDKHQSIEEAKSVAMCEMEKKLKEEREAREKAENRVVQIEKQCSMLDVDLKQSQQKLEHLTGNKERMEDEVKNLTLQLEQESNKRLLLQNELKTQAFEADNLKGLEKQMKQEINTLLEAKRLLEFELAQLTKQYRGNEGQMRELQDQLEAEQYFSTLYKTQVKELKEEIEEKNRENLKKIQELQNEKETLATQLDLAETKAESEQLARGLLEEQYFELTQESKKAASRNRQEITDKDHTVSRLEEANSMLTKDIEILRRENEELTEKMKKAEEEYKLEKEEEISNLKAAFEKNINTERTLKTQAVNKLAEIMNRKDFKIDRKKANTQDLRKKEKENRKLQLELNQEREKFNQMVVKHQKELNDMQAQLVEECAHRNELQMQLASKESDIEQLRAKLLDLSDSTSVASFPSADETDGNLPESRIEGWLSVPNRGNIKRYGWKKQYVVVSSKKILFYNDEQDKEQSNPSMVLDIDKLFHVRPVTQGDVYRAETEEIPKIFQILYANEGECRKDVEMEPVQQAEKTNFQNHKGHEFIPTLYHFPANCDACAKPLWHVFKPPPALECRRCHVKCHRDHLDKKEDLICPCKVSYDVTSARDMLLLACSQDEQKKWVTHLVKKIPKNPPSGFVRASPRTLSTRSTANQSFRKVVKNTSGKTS
SMILES,IC50 [1] [nM],IC50 [2] [nM]
"CN(C(=O)c1cc2ccc(-c3nccc(Nc4ccc5[nH]ncc5c4)n3)cc2s1)C1CCOC1 (centres unmarked) [TDI01392, 6-(4-((1H-indazol-5-yl)amino)pyrimidin-2-yl)-N-methyl-N-(tetrahydrofuran-3-yl)ben-zo[b]thiophene-2-carboxamide]",> 10000,172
"Cn1c(C(=O)N2CC(F)(F)C2)cc2ccc(-c3nccc(Nc4ccc5[nH]ncc5c4)n3)cc21 [TDI01906, (6-(4-((1H-indazol-5-yl)amino)pyrimidin-2-yl)-1-methyl-1H-indol-2-yl)(3,3-difluoroazetidin-1-yl)methanone]",> 10000,49
"CN(C)C(=O)c1cc2ccc(-c3nccc(Nc4ccc(-c5cn[nH]c5)c(F)c4)n3)cc2[nH]1 [TDI01842, 6-(4-((3-fluoro-4-(1H-pyrazol-4-yl)phenyl)ami-no)pyrimidin-2-yl)-N, N-dimethyl-1H-indole-2-carboxamide]",3000,120
"Cn1c(C(=O)N2CC(=CC#N)C2)cc2ccc(-c3nccc(Nc4ccc(-c5cn[nH]c5)cc4)n3)cc21 [TDI01515, 2-(1-(6-(4-((4-(1H-pyrazol-4-yl)phenyl)amino)pyrimidin-2-yl)-1-methyl-1H-indole-2-carbonyl)azetidin-3-ylidene) acetonitrile]",6860,110
"O=C(C1CC(F)(F)C1)N1Cc2ccc(-c3nccc(Nc4ccc(-c5cn[nH]c5)cn4)n3)cc2C1 [TDI01979, (5-(4-((5-(1H-pyrazol-4-yl)pyridin-2-yl)amino)pyrimidin-2-yl)isoindolin-2-yl)(3,3-difluorocyclobutyl)methanone]",> 10000,137
"Cn1c(C(=O)N2CC(F)(F)C2)cc2ccc(-c3nc(Nc4ccc(-c5cn[nH]c5)cc4)c4ccccc4n3)cc21 [TDI01918, (6-(4-((4-(1H-pyrazol-4-yl)phenyl)amino)quinazolin-2-yl)-1-methyl-1H-indol-2-yl)(3,3-difluoroazetidin-1-yl)methanone]",> 10000,165
"O=C(C1CC(F)(F)C1)N1Cc2ccc(-c3nccc(Nc4ccc5[nH]ncc5c4)n3)cc2C1 [TDI01967, (5-(4-((1H-indazol-5-yl)amino)pyrimidin-2-yl)isoindolin-2-yl)(3,3-difluorocyclobutyl) methanone]",> 10000,45
"O=C(c1cc2ccc(-c3nc(Nc4ccc(-c5cn[nH]c5)cc4)c4sccc4n3)cc2[nH]1)N1CC(F)(F)C1 [TDI01472, (6-(4-((4-(1H-pyrazol-4-yl)phenyl)amino)thieno [3,2-d]pyrimidin-2-yl)-1H-indol-2-yl)(3,3-difluoroazetidin-1-yl)methanone]",> 10000,174
"Cn1c(C(=O)N2CC3C(C2)C3(F)F)cc2ccc(-c3nccc(Nc4ccc(-c5cn[nH]c5)cc4)n3)cc21 (centres unmarked) [TDI01512, (6-(4-((4-(1H-pyrazol-4-yl)phenyl)amino)pyrimidin-2yl)-1-methyl-1H-indol-2-yl)(6,6-difluoro-3-azabicyclo[3.1.0]hexan-3-yl)methanone]",3630,22
"Cn1c(C(=O)N2CC(F)(F)C2)cc2ccc(-c3ncnc(Nc4ccc(-c5cn[nH]c5)cc4)n3)cc21 [TDI01532, (6-(4-((4-(1H-pyrazol-4-yl)phenyl)amino)-1,3,5-triazin-2-yl)-1-methyl-1H-indol-2-yl)(3,3-difluoroazetidin-1-yl)methanone]",> 10000,49
"COc1cnc(-c2ccc3cc(C(=O)Nc4ccnnc4)[nH]c3c2)nc1Nc1ccc2[nH]ncc2c1 [TDI01813, 6-(4-((1H-indazol-5-yl)amino)-5-methoxy-pyrimidin-2-yl)-N-(pyridazin-4-yl)-1H-indole-2-carboxamide]",> 10000,90
"O=C(c1cc2ccc(-c3nccc(Nc4ccc(-c5cn[nH]c5)cc4)n3)cc2[nH]1)N1CCC2(C1)CC2(F)F (centres unmarked) [TDI01486, (6-(4-((4-(1H-pyrazol-4-yl)phenyl)amino)pyrimidin-2-yl)-1H-indol-2-yl)(1,1-difluoro-5-azaspiro[2.4]heptan-5-yl)methanone]",3000,185
"CC(C)NC(=O)c1cc2ccc(-c3nc(Nc4ccc(-c5cn[nH]c5)cc4)c4sccc4n3)cc2s1 [TDI01439, 6-(4-((4-(1H-pyrazol-4-yl)phenyl)-amino)thieno-[3,2-d]pyrimidin-2-yl)-N-isopropyl-benzo-[b]thiophene-2-carboxamide]",> 10000,203
CC(NC(=O)c1cc2ccc(-c3nccc(Nc4ccc(-c5cn[nH]c5)cc4)n3)cc2n1C)C(F)(F)F (centres unmarked) [TDI01691],159,6
"CC1(C(=O)N2CCc3ccc(-c4nccc(Nc5ccc(-c6cn[nH]c6)cc5)n4)cc3C2)CC(F)(F)C1 [TDI01676, (7-(4-((4-(1H-pyrazol-4-yl)phenyl)amino)pyrimidin-2-yl)-3,4-dihydroisoquinolin-2(1H)-yl)(3,3-difluoro-1-methylcyclobutyl) methanone]",> 10000,242
"Cn1c(C(=O)N2CCC(C(F)(F)F)C2)cc2ccc(-c3nccc(Nc4ccc(-c5cn[nH]c5)cc4)n3)cc21 (centres unmarked) [TDI01506, (6-(4-((4-(1H-pyrazol-4-yl)phenyl)amino)pyrimidin-2-yl)-1-methyl-1H-indol-2-yl)(3-(trifluoromethyl)pyrrolidin-1-yl) methanone]",7300,295
"O=C(Oc1ccccc1)N1Cc2ccc(-c3nccc(Nc4ccc5[nH]ncc5c4)n3)cc2C1 [TDI01403, phenyl 5-(4-((1H-indazol-5-yl)amino)pyrimidin-2-yl)isoindoline-2-caiboxylate]",3000,110
"O=C(Nc1ccncc1Cl)c1cc2ccc(-c3nccc(Nc4ccc5[nH]ncc5c4)n3)cc2s1 [TDI01372, 6-(4-((1H-indazol-5-yl)amino)-pyrimidin-2-yl)-N-(3-chloropyridin-4-yl)benzo[b]-thiophene-2-carboxamide]",> 10000,123
"COc1cc(Nc2ccnc(-c3ccc4cc(-c5nccs5)[nH]c4c3)n2)ccc1-c1cn[nH]c1 [TDI01912, N-(3-methoxy-4-(1H-pyrazol-4-yl)phenyl)-2-(2-(thiazol-2-yl)-1H-indol-6-yl)pyrimidin-4-amine]",> 10000,44
"NC(=O)c1cnc(-c2ccc3c(c2)CN(C(=O)C2CC(F)(F)C2)C3)nc1Nc1ccc(-c2cn[nH]c2)cc1 [TDI01567, 4-((4-(1H-pyrazol-4-yl)phenyl)amino)-2-(2-(3,3-difluorocyclobutane-1-carbonyl)isoindolin-5-yl)pyrimidin-5-carboxamide]",> 10000,65
"O=C(NC1CCCN(c2ccncc2)C1)c1cc2ccc(-c3nccc(Nc4ccc5[nH]ncc5c4)n3)cc2[nH]1 (centres unmarked) [TDI01840, 6-(4-((1H-indazol-5-yl)amino)-pyrimidin-2-yl)-N-(1-(pyridin-4-yl)piperidin-3-yl)-1H-indole-2-carboxamide]",89,5
"O=C(c1cc2ccc(-c3nccc(Nc4ccc(-c5cn[nH]c5)cc4)n3)cc2[nH]1)N1CCC(F)(F)CC1 [TDI01485, (6-(4-((4-(1H-pyrazol-4-yl)phenyl)amino)pyrimidin-2-yl)-1H-indol-2-yl)(4,4-difluoropiperidin-1-yl)methanone]",3990,276
"COCc1cnc(-c2ccc3cc(C(=O)N4CC(F)(F)C4)n(C)c3c2)nc1Nc1ccc(-c2cn[nH]c2)cc1 [TDI01668, (6-(4-((4-(1H-pyrazol-4-yl)phenyl)amino)-5-(methoxymethyl)pyrimidin-2-yl)-1-methyl-1H-indol-2-yl)(3,3-difluoroazetidin-1-yl)methanone]",> 10000,42
"O=C(NC1CCN(c2ccncc2Cl)CC1)c1cc2ccc(-c3nccc(Nc4ccc(-c5cn[nH]c5)cc4)n3)cc2s1 [TDI01884, 6-(4-((4-(1H-pyrazol-4-yl)phenyl)-amino)-pyrimidin-2-yl)-N-(1-(3-chloropyridin-4-yl)piperidin-4-yl)benzo[b]-thiophene-2-carboxamide]",> 10000,26
"Cn1c(C(=O)N2CC(F)(F)C2)cc2ccc(-c3nc(Nc4ccc(-c5cn[nH]c5)cc4)c4sccc4n3)cc21 [TDI01508, (6-(4-((4-(1H-pyrazol-4-yl)phenyl)amino)thieno[3,2-d]pyrimidin-2-yl)-1-methyl-1H-indol-2-yl)(3,3-difluoroazetidin-1-yl)methanone]",> 10000,159
